Experimental data as given in patent US6864217B2, “Herbicidal compositions with substituted phenylsulfonylureas for controlling weeds in rice” (Hoechst Schering AgrEvo GmbH, priority 1998, dated 2005).

Key:
Sagittaria pygmaea [1] = assay: Table 14 greenhouse trial, treatment at the 3-4 leaf stage: weed control; type: in vivo; settings: 21 days after application
Experimental: (§1) Seeds or rhizome pieces of mono- and dicotyledonous weed plants are placed into sandy loam soil in plastic pots, covered with soil and grown in a greenhouse under good growth conditions (temperature, atmospheric humidity, water supply). Weeds which are encountered in the cultivation of rice are cultivated in pots in which the water level is up to 2 cm over the soil surface. Three weeks after sowing, the test plants are treated at the three-leaf stage. The active compound combinations according to the invention, formulated as wettable powders or emulsion concentrates, and, in parallel experiments, the correspondingly formulated individual active compounds are sprayed onto the green parts of the plants at different dosages using an amount of water of 300 to 600 l/ha (converted), and, after about 3 to 4 weeks of the test plants in the greenhouse under optimum growth conditions (temperature, atmospheric humidity, water supply), the effect of the preparations is evaluated visually in comparison to untreated controls. In the case of rice or weeds which are encountered in the cultivation of rice, the active compounds are also added directly to the water for irrigation (application analogous to the so-called granules application) or sprayed onto plants and added to the water for irrigation. The experiments were designed with several, up to five, repetitions. The herbicidal compositions according to the invention also have good herbicidal post-emergence activity against a broad spectrum of economically important weed grasses and broad-leaved weeds.
(§2) Greenhouse trial: Treatment at the 3-4 leaf stage, evaluation 21 days after the application.

Oryza sativa [2] = assay: Table 14 greenhouse trial, treatment at the 3-4 leaf stage: rice damage; type: in vivo; settings: 21 days after application
Experimental: as §1, §2

Sagittaria pygmaea [3] = assay: Table 13 greenhouse trial, treatment at the 5-6 leaf stage: weed control; type: in vivo; settings: 20 days after application
Experimental: as §1
(§3) Greenhouse trial: Treatment at the 5-6 leaf stage, evaluation 20 days after the application.

Oryza sativa [4] = assay: Table 13 greenhouse trial, treatment at the 5-6 leaf stage: rice damage; type: in vivo; settings: 20 days after application
Experimental: as §1, §3

Echinochloa crusgalli [5] = assay: Table 5 field trial, treatment at the 2-4 leaf stage rice: weed control; type: in vivo; settings: evaluation after 28 days
Experimental: (§7) The examples mentioned below were carried out in the greenhouse, and in some instances, in field trials.

Oryza sativa [6] = assay: Table 5 field trial, treatment at the 2-4 leaf stage rice: rice damage; type: in vivo; settings: evaluation after 28 days
Experimental: as §7

Echinochloa crusgalli [7] = assay: Table 4 field trial: weed control; type: in vivo
Experimental: as §7

Echinochloa crusgalli [8] = assay: Table 18 field trial, treatment at the 1-2 leaf stage: weed control; type: in vivo; settings: 30 g of ai/ha, 14 days after application
Description: (§4) Field trial: Treatment at the 1-2 leaf stage, evaluation 14 days after the application.

Oryza sativa [9] = assay: Table 18 field trial, treatment at the 1-2 leaf stage: rice damage; type: in vivo; settings: 30 g of ai/ha, 14 days after application
Description: as §4

Oryza sativa [10] = assay: Table 4 field trial: rice damage
Experimental: as §7

Cyperus iria = assay: Table 23 field trial, treatment: 4-6 leaf stage: weed control; type: in vivo; settings: 36 days after application
Description: (§5) Field trial: Treatment: 4-6 leaf stage, evaluation 36 days after the application.

Oryza sativa [11] = assay: Table 23 field trial, treatment: 4-6 leaf stage: rice damage; type: in vivo; settings: 36 days after application
Description: as §5

Echinochloa crusgalli [12] = assay: Table 9 greenhouse trial, treatment at the 1-2 leaf stage: weed control; type: in vivo; settings: 22 days after application
Experimental: as §1
(§6) Greenhouse trial: Treatment at the 1-2 leaf stage, evaluation 22 days after the application.

Oryza sativa [13] = assay: Table 9 greenhouse trial, treatment at the 1-2 leaf stage: rice damage; type: in vivo; settings: 22 days after application
Experimental: as §1, §6

For `CCCOCCN(C(=O)CCl)c1c(CC)cccc1CC` [B4), 2-chloro-N-(2,6-diethylphenyl)-N-(2-propoxyethyl)acetamide], the SAGPY % control (Sagittaria pygmaea [1]; 125 g of ai/ha) was 65%, the SAGPY % control (Sagittaria pygmaea [1]; 250 g of ai/ha) was 70% and the SAGPY % control (Sagittaria pygmaea [1]; 500 g of ai/ha) was 75%. It also gave an ORYSW % damage (Oryza sativa [2]; 125 g of ai/ha) of 15%, an ORYSW % damage (Oryza sativa [2]; 250 g of ai/ha) of 15% and an ORYSW % damage (Oryza sativa [2]; 500 g of ai/ha) of 35%.

`O=C(O)c1c(Cl)ccc2cc(Cl)cnc12` [B13), 3,7-dichloro-8-quinolincarboxylic acid] gave an SAGPY % control (Sagittaria pygmaea [1]; 250 g of ai/ha) of 30%, an SAGPY % control (Sagittaria pygmaea [1]; 500 g of ai/ha) of 30% and an SAGPY % control (Sagittaria pygmaea [1]; 1000 g of ai/ha) of 30%. It also gave an ORYSW % damage (Oryza sativa [2]; 250 g of ai/ha) of 0%, an ORYSW % damage (Oryza sativa [2]; 500 g of ai/ha) of 0% and an ORYSW % damage (Oryza sativa [2]; 1000 g of ai/ha) of 0%.

Work on `CCN(C(=O)n1nnn(-c2ccccc2Cl)c1=O)C1CCCCC1` [B17), 4-(2-chlorophenyl)-5-oxo-4,5-dihydro-tetrazole-1-carboxylic acid cyclohexyl-ethyl-amide] yielded an SAGPY % control (Sagittaria pygmaea [3]; 50 g of ai/ha) of 0%, an SAGPY % control (Sagittaria pygmaea [3]; 100 g of ai/ha) of 40% and an SAGPY % control (Sagittaria pygmaea [3]; 200 g of ai/ha) of 80%. It also gave an ORYSW % damage (Oryza sativa [4]; 50 g of ai/ha) of 0%, an ORYSW % damage (Oryza sativa [4]; 100 g of ai/ha) of 0% and an ORYSW % damage (Oryza sativa [4]; 200 g of ai/ha) of 0%.

With `COP(=S)(OC)SCC(=O)N(c1ccc(Cl)cc1)C(C)C` [B19), S-[2-[(4-chlorophenyl)(1-methylethyl)amino]-2-oxo-ethyl]O,O-dimethylphosphorodithioate] the ECHCG % control (Echinochloa crusgalli [5]; 250 g of ai/ha) was 30%, the ECHCG % control (Echinochloa crusgalli [5]; 500 g of ai/ha) was 40% and the ORYSW % damage (Oryza sativa [6]; 250 g of ai/ha) was 2%. It also gave an ORYSW % damage (Oryza sativa [6]; 500 g of ai/ha) of 10%.

`C[C@@H](Oc1ccc(Oc2nc3ccc(Cl)cc3o2)cc1)C(=O)O` [B20), (R)-2-[4-(6-chloro-1,3-benzoxazol-2-yloxy)phenoxy]-propionic acid] showed an ECHCG % control (Echinochloa crusgalli [7]; 10 g of ai/ha) of 0%, an ECHCG % control (Echinochloa crusgalli [7]; 20 g of ai/ha) of 0% and an ECHCG % control (Echinochloa crusgalli [8]) of 75%. For the same molecule, the ORYSW % damage (Oryza sativa [9]) was 0%, the ORYSW % damage (Oryza sativa [10]; 10 g of ai/ha) was 0% and the ORYSW % damage (Oryza sativa [10]; 20 g of ai/ha) was 0%.

Molecule `CC(C)N1C(=O)c2ccccc2NS1(=O)=O` [B39), 3-isopropyl-1H-2,1,3-benzothiadiazin-4(3H)-one-2,2-dioxide] has a CYPIR % control (Cyperus iria; 250 g of ai/ha) of 42%, a CYPIR % control (Cyperus iria; 400 g of ai/ha) of 78% and a CYPIR % control (Cyperus iria; 800 g of ai/ha) of 97%. For the same molecule, the ORYSW % damage (Oryza sativa [11]; 250 g of ai/ha) was 0%, the ORYSW % damage (Oryza sativa [11]; 400 g of ai/ha) was 0% and the ORYSW % damage (Oryza sativa [11]; 800 g of ai/ha) was 3%.

Molecule `COc1cc(OC)nc(Oc2cccc(Oc3nc(OC)cc(OC)n3)c2C(=O)O)n1` [B48), sodium 2,6-bis[(4,6-dimethoxypyrimidin-2-yl)oxy]-benzoate] has an ECHCG % control (Echinochloa crusgalli [12]; 19 g of ai/ha) of 15%, an ECHCG % control (Echinochloa crusgalli [12]; 38 g of ai/ha) of 30% and an ECHCG % control (Echinochloa crusgalli [12]; 75 g of ai/ha) of 40%. It also gave an ORYSW % damage (Oryza sativa [13]; 19 g of ai/ha) of 0%, an ORYSW % damage (Oryza sativa [13]; 38 g of ai/ha) of 0% and an ORYSW % damage (Oryza sativa [13]; 75 g of ai/ha) of 5%.
